Source: patent publication US20260258032A1, “TYROSINE KINASE 2 INHIBITORS AND USES THEREOF” (BIOGEN MA INC., priority 2022, published 2026)

What was measured:
[1] = system: Tyk2 kinase activity on STAT4; assay: pSTAT4 cell assay (MSD, NK92 cells); type: cell-based; settings: compounds 1 hr, stimulated 15 minutes
Procedure: The inhibitory potency of compounds of the disclosure against the Tyk2 kinase activity on STAT4 was evaluated using an MSD-platform plate-based assay format. NK92 cells natively expressing STAT4 and Tyk2 were serum-starved to reduce background phosphorylation levels, then cells were treated compounds for 1 hr with a 10-point four-fold dilution series starting at 10 μM. Cells were then stimulated with 30 ng/mL IL2 for 15 minutes. Cells were lysed and […] levels were quantitated using an MSD plate-based assay with anti-STAT4 antibodies. The data were normalized and the percent activity versus log concentration of compound were fitted with a 4-parameter logistic model to generate to generate IC50 curves.

JH2 domain of human Tyk2 = target: T1, JH2 domain of human Tyk2 (Homo sapiens, UniProt P29597); assay: JH2 biochemical assay (TR-FRET probe displacement); type: binding; settings: JH2 biochemical assay
T1 construct: 10×His-tagged TYK2 JH2 domain (amino acid 575-876)
In short: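 A probe-displacement TR-FRET readout: compounds, tested in 3-fold, 10-point dilutions starting at […], compete with 2 nM tracer for 2 nM His-tagged JH2 (residues 575-876) detected by 0.1 nM Tb-anti-His over 60 min. IC50 comes from 4-parameter fits of normalized 520/495 nm ratios.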

T1 sequence (P29597 575-876): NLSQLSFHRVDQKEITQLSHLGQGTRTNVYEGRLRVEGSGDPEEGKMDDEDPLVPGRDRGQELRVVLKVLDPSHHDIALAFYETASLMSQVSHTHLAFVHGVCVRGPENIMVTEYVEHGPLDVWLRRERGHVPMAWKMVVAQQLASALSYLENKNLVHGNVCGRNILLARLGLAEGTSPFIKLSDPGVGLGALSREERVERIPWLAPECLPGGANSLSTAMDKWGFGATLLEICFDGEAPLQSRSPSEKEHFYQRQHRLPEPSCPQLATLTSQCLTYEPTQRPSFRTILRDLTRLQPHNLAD

| Compound | IC50 [1] [nM] | IC50 (JH2 domain of human Tyk2) [nM] |
| --- | --- | --- |
| COc1cc(N2CCc3cnc(NC(C)=O)cc32)nc(C(C)(F)F)n1 [Example 34, N-(1-(2-(1,1-difluoroethyl)-6-methoxypyrimidin-4-yl)-2,3-dihydro-1H-pyrrolo[3,2-c]pyridin-6-yl)acetamide] | ≥ 1000 | 10 to 100 |
| COCCN(C)c1cc(N2CC3(CC3)c3cnc(NC(C)=O)cc32)nc(C(C)(F)F)n1 [Example 50, N-(1′-(2-(1,1-difluoroethyl)-6-((2-methoxyethyl)(methyl)amino)pyrimidin-4-yl)-1′,2′-dihydrospiro[cyclopropane-1,3′-pyrrolo[3,2-c]pyridin]-6′-yl)acetamide] | 100 to 1000 | ≤ 10 |
| CC(=O)Nc1cc2c(cn1)C1(CC1)CN2c1cc(N2CCC2)nc(C(C)(F)F)n1 [Example 51, N-(1′-(6-(azetidin-1-yl)-2-(1,1-difluoroethyl)pyrimidin-4-yl)-1′,2′-dihydrospiro[cyclopropane-1,3′-pyrrolo[3,2-c]pyridin]-6′-yl)acetamide] | 100 to 1000 | ≤ 10 |
| CC(=O)Nc1cc2c(cn1)C1(CC1)CN2c1cc(N2CCOCC2)nc(C(C)(F)F)n1 [Example 52, N-(1′-(2-(1,1-difluoroethyl)-6-morpholinopyrimidin-4-y1)-1′,2′-dihydrospiro[cyclopropane-1,3′-pyrrolo[3,2-c]pyridin]-6′-yl)acetamide] | 100 to 1000 | ≤ 10 |
| CC(=O)Nc1cc2c(cn1)C1(CC1)CN2c1cc(C(C)C)nc(C(C)(F)F)n1 [Example 53, N-(1′-(2-(1,1-difluoroethyl)-6-isopropylpyrimidin-4-yl)-1′,2′-dihydrospiro[cyclopropane-1,3′-pyrrolo[3,2-c]pyridin]-6′-yl)acetamide] | 10 to 100 | ≤ 10 |
| CC(=O)Nc1cc2c(cn1)C1(CC1)CN2c1cc(C)nc(C2CC2)n1 [Example 54, N-(1′-(2-cyclopropyl-6-methylpyrimidin-4-yl)-1′,2′-dihydrospiro[cyclopropane-1,3′-pyrrolo[3,2-c]pyridin]-6′-yl)acetamide] | 100 to 1000 | ≤ 10 |
| CC(=O)Nc1cc2c(cn1)C1(CC1)CN2c1cc(C)nc(C(C)(C)C)n1 [Example 55, N-(1′-(2-(tert-butyl)-6-methylpyrimidin-4-yl)-1′,2′-dihydrospiro[cyclopropane-1,3′-pyrrolo[3,2-c]pyridin]-6′-yl)acetamide] | 100 to 1000 | ≤ 10 |
| CCCCc1nc(C)cc(N2CC3(CC3)c3cnc(NC(C)=O)cc32)n1 [Example 58, N-(1′-(2-butyl-6-methylpyrimidin-4-yl)-1′,2′-dihydrospiro[cyclopropane-1,3′-pyrrolo[3,2-c]pyridin]-6′-yl)acetamide] | ≥ 1000 | 10 to 100 |
| CCOCc1nc(C)cc(N2CC3(CC3)c3cnc(NC(C)=O)cc32)n1 [Example 59, N-(1′-(2-(ethoxymethyl)-6-methylpyrimidin-4-yl)-1′,2′-dihydrospiro[cyclopropane-1,3′-pyrrolo[3,2-c]pyridin]-6′-yl)acetamide] | ≥ 1000 | 100 to 1000 |
| CC(=O)Nc1cc2c(cn1)C1(CC1)CN2c1cc(C)nc(C(F)(F)F)n1 [Example 61, N-(1′-(6-methyl-2-(trifluoromethyl)pyrimidin-4-yl)-1′,2′-dihydrospiro[cyclopropane-1,3′-pyrrolo[3,2-c]pyridin]-6′-yl)acetamide] | ≥ 1000 | 10 to 100 |
| CC(=O)Nc1cc2c(cn1)C1(CC1)CN2c1cc(C)nc(CC2CC2)n1 [Example 62, N-(1′-(2-(cyclopropylmethyl)-6-methylpyrimidin-4-yl)-1′,2′-dihydrospiro[cyclopropane-1,3′-pyrrolo[3,2-c]pyridin]-6′-yl)acetamide] | 100 to 1000 | ≤ 10 |
| CC(=O)Nc1cc2c(cn1)C1(CC1)CN2c1cc(C)nc(C(F)F)n1 [Example 63, N-(1′-(2-(difluoromethyl)-6-methylpyrimidin-4-yl)-1′,2′-dihydrospiro[cyclopropane-1,3′-pyrrolo[3,2-c]pyridin]-6′-yl)acetamide] | ≥ 1000 | 10 to 100 |
| CCc1nc(C)cc(N2CC3(CC3)c3cnc(NC(C)=O)cc32)n1 [Example 64, N-(1′-(2-ethyl-6-methylpyrimidin-4-yl)-1′,2′-dihydrospiro[cyclopropane-1,3′-pyrrolo[3,2-c]pyridin]-6′-yl)acetamide] | ≥ 1000 | 10 to 100 |
| CCCc1nc(C)cc(N2CC3(CC3)c3cnc(NC(C)=O)cc32)n1 [Example 65, N-(1′-(6-methyl-2-propylpyrimidin-4-yl)-1′,2′-dihydrospiro[cyclopropane-1,3′-pyrrolo[3,2-c]pyridin]-6′-yl)acetamide] | 100 to 1000 | 10 to 100 |
| CC(=O)Nc1cc2c(cn1)C1(CC1)CN2c1cc(C)nc(C(C)C)n1 [Example 66, N-(1′-(2-isopropyl-6-methylpyrimidin-4-yl)-1′,2′-dihydrospiro[cyclopropane-1,3′-pyrrolo[3,2-c]pyridin]-6′-yl)acetamide] | 100 to 1000 | ≤ 10 |
| CC(=O)Nc1cc2c(cn1)C1(CC1)CN2c1nc(C)nc(C)c1F [Example 67, N-(1′-(5-fluoro-2,6-dimethylpyrimidin-4-yl)-1′,2′-dihydrospiro[cyclopropane-1,3′-pyrrolo[3,2-c]pyridin]-6′-yl)acetamide] | ≥ 1000 | 100 to 1000 |
| CC(=O)Nc1cc2c(cn1)C1(CC1)CN2c1cc(C)nc(C2(C)CC2)n1 [Example 69, N-(1′-(6-methyl-2-(1-methylcyclopropyl)pyrimidin-4-yl)-1′,2′-dihydrospiro[cyclopropane-1,3′-pyrrolo[3,2-c]pyridin]-6′-yl)acetamide] | 100 to 1000 | ≤ 10 |
| CC(=O)Nc1cc2c(cn1)C1(CC1)CN2c1cc(C)nc(C2CCCOC2)n1 (stereo not shown) [Example 70, N-(1′-(6-methyl-2-(tetrahydro-2H-pyran-3-yl)pyrimidin-4-yl)-1′,2′-dihydrospiro[cyclopropane-1,3′-pyrrolo[3,2-c]pyridin]-6′-yl)acetamide] | 100 to 1000 | ≤ 10 |
| COCCCc1nc(C)cc(N2CC3(CC3)c3cnc(NC(C)=O)cc32)n1 [Example 71, N-(1′-(2-(3-methoxypropyl)-6-methylpyrimidin-4-yl)-1′,2′-dihydrospiro[cyclopropane-1,3′-pyrrolo[3,2-c]pyridin]-6′-yl)acetamide] | ≥ 1000 | 10 to 100 |
| CC(=O)Nc1cc2c(cn1)C1(CC1)CN2c1cc([C@H]2C[C@@H](C#N)C2)nc(C(C)(F)F)n1 [Example 74, N-(1′-(6-((1s,3s)-3-cyanocyclobutyl)-2-(1,1-difluoroethyl)pyrimidin-4-yl)-1′,2′-dihydrospiro[cyclopropane-1,3′-pyrrolo[3,2-c]pyridin]-6′-yl)acetamide or N-(1′-(6-((1r,3r)-3-cyanocyclobutyl)-2-(1,1-difluoroethyl)pyrimidin-4-yl)-1′,2′-dihydrospiro[cyclopropane-1,3′-pyrrolo[3,2-c]pyridin]-6′-yl)acetamide] | 10 to 100 | ≤ 10 |
